Results reported in ChEMBL document CHEMBL1649463, “Capsular type and antibiotic resistance in Streptococcus agalactiae isolates from patients, ranging from newborns to the elderly, with invasive infections” (2009).
Values after ≈ are worked out from the molar mass of the structure shown.

Test system: Streptococcus agalactiae
Assay: Antimicrobial activity against Streptococcus agalactiae clinical isolates by agar dilution method
Type: functional

Structure (SMILES)	MIC50 [µg/mL]	MIC90 [µg/mL]
CC(=N)N1CC[C@H](SC2=C(C(=O)O)N3C(=O)[C@H]([C@@H](C)O)[C@H]3C2)C1	0.016 (≈ 0.0471 µM)	0.031 (≈ 0.0913 µM)
C=CC1=C(C(=O)O)N2C(=O)[C@@H](NC(=O)/C(=N\O)c3csc(N)n3)[C@H]2SC1	0.031 (≈ 0.0784 µM)	0.063 (≈ 0.159 µM)
CC1(C)S[C@@H]2[C@H](NC(=O)[C@H](N)c3ccc(O)cc3)C(=O)N2[C@H]1C(=O)O [AMOXICILLIN]	0.063 (≈ 0.172 µM)	0.125 (≈ 0.342 µM)
CC1(C)S[C@@H]2[C@H](NC(=O)[C@H](N)c3ccccc3)C(=O)N2[C@H]1C(=O)O [AMPICILLIN]	0.125 (≈ 0.358 µM)	0.125 (≈ 0.358 µM)
CO/N=C(\C(=O)N[C@@H]1C(=O)N2C(C(=O)OCOC(=O)C(C)(C)C)=C(/C=C\c3scnc3C)CS[C@H]12)c1csc(N)n1 [CEFDITOREN PIVOXIL]	0.031 (≈ 0.0499 µM)	0.031 (≈ 0.0499 µM)
CO/N=C(\C(=O)N[C@@H]1C(=O)N2C(C(=O)O)=C(COC(C)=O)CS[C@H]12)c1csc(N)n1 [CEFOTAXIME]	0.031 (≈ 0.0681 µM)	0.063 (≈ 0.138 µM)
CN(C)CCn1nnnc1SCC1=C(C(=O)O)N2C(=O)[C@@H](NC(=O)Cc3csc(N)n3)[C@H]2SC1 [CEFOTIAM]	0.5 (≈ 0.951 µM)	0.5 (≈ 0.951 µM)
CC[C@H]1OC(=O)[C@H](C)[C@@H](O[C@H]2C[C@@](C)(OC)[C@@H](O)[C@H](C)O2)[C@H](C)[C@@H](O[C@@H]2O[C@H](C)C[C@H](N(C)C)[C@H]2O)[C@](C)(OC)C[C@@H](C)C(=O)[C@H](C)[C@@H](O)[C@]1(C)O [CLARITHROMYCIN]	0.125 (≈ 0.167 µM)	≥ 64
CCC[C@@H]1C[C@@H](C(=O)N[C@@H]([C@H]2O[C@H](SC)[C@H](O)[C@@H](O)[C@H]2O)[C@H](C)Cl)N(C)C1 [CLINDAMYCIN]	0.063 (≈ 0.148 µM)	≥ 64
CC[C@H]1OC(=O)[C@H](C)[C@@H](O[C@H]2C[C@@](C)(OC)[C@@H](O)[C@H](C)O2)[C@H](C)[C@@H](O[C@@H]2O[C@H](C)C[C@H](N(C)C)[C@H]2O)[C@](C)(O)C[C@@H](C)C(=O)[C@H](C)[C@@H](O)[C@]1(C)O [ERYTHROMYCIN]	0.032 (≈ 0.0436 µM)	≥ 64
C[C@H]1COc2c(N3CCN(C)CC3)c(F)cc3c(=O)c(C(=O)O)cn1c23.C[C@H]1COc2c(N3CCN(C)CC3)c(F)cc3c(=O)c(C(=O)O)cn1c23.O [LEVOFLOXACIN]	2	≥ 64
C[C@@H](O)[C@H]1C(=O)N2C(C(=O)O)=C(S[C@@H]3CN[C@H](C(=O)N(C)C)C3)[C@H](C)[C@H]12 [MEROPENEM]	0.063 (≈ 0.164 µM)	0.063 (≈ 0.164 µM)
CC1(C)S[C@@H]2[C@H](NC(=O)Cc3ccccc3)C(=O)N2[C@H]1C(=O)O [PENICILLIN G]	0.063 (≈ 0.188 µM)	0.063 (≈ 0.188 µM)
